Test results published in ChEMBL document CHEMBL1148600, “Synthesis and in vivo validation of [O-methyl-11C]2-{4-[4-(7-methoxynaphthalen-1-yl)piperazin- 1-yl]butyl}-4-methyl-2H-[1,2,4]triazine-3,5-dione: a novel 5-HT1A receptor agonist positron emission tomography ligand” (J Med Chem, 2006).

Columns and labels:
[1] = target: Cannabinoid receptor 2 (Homo sapiens, UniProt P34972); test: Binding affinity to CB2 receptor
[2] = Binding affinity to mGluR
[3] = target: Sigma 2 receptor; test: Binding affinity to sigma2 receptor
[4] = Binding affinity to prostanoid receptor
[5] = target: T1, 5-hydroxytryptamine receptor 1A (Homo sapiens, UniProt P08908); test: Agonistic activity at human 5HT1A receptor by [35S]GTP-gamma-S binding; type: functional
T1 sequence (P08908 whole entry): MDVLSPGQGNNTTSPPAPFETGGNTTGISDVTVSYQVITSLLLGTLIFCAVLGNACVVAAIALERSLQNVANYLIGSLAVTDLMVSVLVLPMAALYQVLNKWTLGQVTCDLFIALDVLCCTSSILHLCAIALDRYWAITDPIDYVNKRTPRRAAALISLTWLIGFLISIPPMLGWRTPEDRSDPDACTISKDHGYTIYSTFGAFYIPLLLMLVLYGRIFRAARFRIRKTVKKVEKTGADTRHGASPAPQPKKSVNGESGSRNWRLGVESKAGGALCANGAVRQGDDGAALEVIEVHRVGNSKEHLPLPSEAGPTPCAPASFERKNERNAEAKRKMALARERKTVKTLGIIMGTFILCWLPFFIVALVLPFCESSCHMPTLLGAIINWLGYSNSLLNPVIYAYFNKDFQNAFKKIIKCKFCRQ

[6] = target: 5-hydroxytryptamine receptor 7 (Homo sapiens, UniProt P34969); test: Binding affinity to human 5HT7 receptor
[7] = target: Adrenergic receptor alpha-1 (Homo sapiens, UniProt P35348+P25100+P35368); test: Binding affinity to adrenergic alpha-1 receptor; type: protein assay
[8] = Binding affinity to GABA receptor
[9] = target: Muscarinic acetylcholine receptor; test: Binding affinity to muscarinic receptor; type: protein assay
[10] = target: 5-hydroxytryptamine receptor 2C (Homo sapiens, UniProt P28335); test: Binding affinity to human 5HT2C receptor
Chain of 5-hydroxytryptamine receptor 2C (P28335 whole entry): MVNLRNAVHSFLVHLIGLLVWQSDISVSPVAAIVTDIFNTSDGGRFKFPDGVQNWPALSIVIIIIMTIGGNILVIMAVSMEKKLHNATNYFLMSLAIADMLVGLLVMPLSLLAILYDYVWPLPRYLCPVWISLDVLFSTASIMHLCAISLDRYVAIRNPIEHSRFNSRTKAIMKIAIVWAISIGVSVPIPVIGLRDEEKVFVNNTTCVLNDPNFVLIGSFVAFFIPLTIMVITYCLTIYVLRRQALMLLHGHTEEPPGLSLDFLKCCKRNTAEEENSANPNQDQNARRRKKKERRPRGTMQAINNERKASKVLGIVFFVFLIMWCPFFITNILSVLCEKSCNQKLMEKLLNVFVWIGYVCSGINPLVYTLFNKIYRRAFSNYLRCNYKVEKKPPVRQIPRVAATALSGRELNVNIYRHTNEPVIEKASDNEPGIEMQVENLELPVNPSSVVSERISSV

[11] = target: T1, 5-hydroxytryptamine receptor 1A; test: Agonistic activity at human 5HT1A in CHO cells by the inhibition of forskolin-stimulated cAMP accumulation; type: functional, cell-based
[12] = target: Alpha-2C adrenergic receptor (Homo sapiens, UniProt P18825); test: Binding affinity to adrenergic alpha-2C receptor
[13] = target: Mu-type opioid receptor (Homo sapiens, UniProt P35372); test: Binding affinity to mu opioid receptor
[14] = target: Sigma non-opioid intracellular receptor 1 (Homo sapiens, UniProt Q99720); test: Binding affinity to sigma1 receptor
[15] = target: D(4) dopamine receptor (Homo sapiens, UniProt P21917); test: Binding affinity to dopamine D4 receptor
Chain of D(4) dopamine receptor (P21917 whole entry): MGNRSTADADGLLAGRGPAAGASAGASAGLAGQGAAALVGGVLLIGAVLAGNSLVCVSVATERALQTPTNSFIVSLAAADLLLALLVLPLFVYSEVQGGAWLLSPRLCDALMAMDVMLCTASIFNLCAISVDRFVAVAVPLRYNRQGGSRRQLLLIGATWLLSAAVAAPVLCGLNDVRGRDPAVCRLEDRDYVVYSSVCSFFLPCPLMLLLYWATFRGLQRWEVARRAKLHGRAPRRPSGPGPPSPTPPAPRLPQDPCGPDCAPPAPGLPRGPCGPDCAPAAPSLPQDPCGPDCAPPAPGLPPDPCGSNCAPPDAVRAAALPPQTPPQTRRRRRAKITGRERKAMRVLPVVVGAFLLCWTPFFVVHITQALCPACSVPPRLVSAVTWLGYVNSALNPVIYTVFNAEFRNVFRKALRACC

[16] = target: Beta-1 adrenergic receptor (Homo sapiens, UniProt P08588); test: Binding affinity to adrenergic beta-1 receptor
[17] = Binding affinity to calcium channel
[18] = target: Glutamate [NMDA] receptor; test: Binding affinity to NMDA receptor; type: protein-complex assay
[19] = target: Histamine H2 receptor (Homo sapiens, UniProt P25021); test: Binding affinity to histamine H2 receptor
[20] = Binding affinity to NK receptor
[21] = target: Adenosine A2 receptor (Homo sapiens, UniProt P29275+P29274); test: Binding affinity to adenosine A2 receptor; type: protein assay
[22] = target: Synaptic vesicular amine transporter (Homo sapiens, UniProt Q05940); test: Binding affinity to VMAT2
[23] = target: 5-hydroxytryptamine receptor 6 (Homo sapiens, UniProt P50406); test: Binding affinity to human 5HT6 receptor
[24] = Binding affinity to imidazoline receptor
[25] = target: Histamine H3 receptor (Homo sapiens, UniProt Q9Y5N1); test: Binding affinity to histamine H3 receptor
[26] = target: Vasopressin V1 receptor (Homo sapiens, UniProt P37288+P47901); test: Binding affinity to vasopressin 1 receptor; type: protein assay
[27] = target: Delta-type opioid receptor (Homo sapiens, UniProt P41143); test: Binding affinity to Delta opioid receptor
Chain of Delta-type opioid receptor (P41143 whole entry): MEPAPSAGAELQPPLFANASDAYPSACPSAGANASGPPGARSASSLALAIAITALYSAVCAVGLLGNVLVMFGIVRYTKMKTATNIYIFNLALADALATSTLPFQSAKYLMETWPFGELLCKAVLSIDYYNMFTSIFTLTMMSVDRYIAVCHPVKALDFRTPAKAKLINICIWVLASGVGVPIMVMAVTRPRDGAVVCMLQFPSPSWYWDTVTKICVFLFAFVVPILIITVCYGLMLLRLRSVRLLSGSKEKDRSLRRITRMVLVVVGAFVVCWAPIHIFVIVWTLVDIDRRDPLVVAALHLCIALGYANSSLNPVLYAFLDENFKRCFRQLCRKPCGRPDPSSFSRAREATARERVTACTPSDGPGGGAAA

[28] = target: Serotonin 3 (5-HT3) receptor; test: Binding affinity to human 5HT3 receptor; type: protein-complex assay
[29] = target: Sodium-dependent dopamine transporter (Homo sapiens, UniProt Q01959); test: Binding affinity to DAT
[30] = target: Vasopressin V2 receptor (Homo sapiens, UniProt P30518); test: Binding affinity to vasopressin 2 receptor
[31] = target: Alpha-2A adrenergic receptor (Homo sapiens, UniProt P08913); test: Binding affinity to adrenergic alpha-2A receptor
Chain of Alpha-2A adrenergic receptor (P08913 whole entry): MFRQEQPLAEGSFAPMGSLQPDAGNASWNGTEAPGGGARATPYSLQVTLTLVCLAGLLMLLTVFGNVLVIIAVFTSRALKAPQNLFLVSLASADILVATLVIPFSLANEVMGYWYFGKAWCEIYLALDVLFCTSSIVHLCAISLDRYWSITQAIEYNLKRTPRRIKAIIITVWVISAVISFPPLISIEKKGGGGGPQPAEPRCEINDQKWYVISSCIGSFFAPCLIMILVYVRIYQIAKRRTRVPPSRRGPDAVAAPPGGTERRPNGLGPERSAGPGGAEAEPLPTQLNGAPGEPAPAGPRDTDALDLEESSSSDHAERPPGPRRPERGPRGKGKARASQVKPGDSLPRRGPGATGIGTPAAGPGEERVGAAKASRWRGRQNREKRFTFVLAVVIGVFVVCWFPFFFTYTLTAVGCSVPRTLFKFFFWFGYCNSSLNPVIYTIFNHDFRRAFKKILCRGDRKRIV

[32] = target: T1, 5-hydroxytryptamine receptor 1A; test: Displacement of [3H]8-OH-DPAT from human 5HT1A receptor expressed in CHO cells; type: cell-based
[33] = target: D(1B) dopamine receptor (Homo sapiens, UniProt P21918); test: Binding affinity to dopamine D5 receptor
[34] = target: D(2) dopamine receptor (Homo sapiens, UniProt P14416); test: Binding affinity to dopamine D2 receptor
[35] = target: Histamine H1 receptor (Homo sapiens, UniProt P35367); test: Binding affinity to histamine H1 receptor
[36] = target: Sodium-dependent noradrenaline transporter (Homo sapiens, UniProt P23975); test: Binding affinity to NET
[37] = target: Chromaffin granule amine transporter (Homo sapiens, UniProt P54219); test: Binding affinity to VMAT1
[38] = target: D(1A) dopamine receptor (Homo sapiens, UniProt P21728); test: Binding affinity to dopamine D1 receptor
[39] = target: ATP-dependent translocase ABCB1 (Homo sapiens, UniProt P08183); test: Binding affinity to MDR1
[40] = target: Glutamate receptor ionotropic AMPA (Homo sapiens, UniProt P42261+P42262+P42263+P48058); test: Binding affinity to AMPA receptor; type: protein-complex assay
[41] = Binding affinity to sodium channel
[42] = target: Voltage-gated inwardly rectifying potassium channel KCNH2 (Homo sapiens, UniProt Q12809); test: Binding affinity to hERG
[43] = target: D(3) dopamine receptor (Homo sapiens, UniProt P35462); test: Binding affinity to dopamine D3 receptor
Chain of D(3) dopamine receptor (P35462 whole entry): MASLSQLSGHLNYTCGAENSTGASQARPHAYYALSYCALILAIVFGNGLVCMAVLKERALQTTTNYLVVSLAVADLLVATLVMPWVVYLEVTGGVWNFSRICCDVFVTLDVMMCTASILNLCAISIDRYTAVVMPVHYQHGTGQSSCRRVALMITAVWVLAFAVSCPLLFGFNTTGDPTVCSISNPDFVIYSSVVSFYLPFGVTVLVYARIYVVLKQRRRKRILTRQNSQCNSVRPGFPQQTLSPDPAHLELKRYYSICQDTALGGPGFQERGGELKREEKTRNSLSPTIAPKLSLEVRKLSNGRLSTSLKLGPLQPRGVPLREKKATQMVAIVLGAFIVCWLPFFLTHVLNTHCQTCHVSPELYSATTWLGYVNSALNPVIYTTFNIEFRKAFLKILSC

[44] = target: Alpha-2B adrenergic receptor (Homo sapiens, UniProt P18089); test: Binding affinity to adrenergic alpha-2B receptor
[45] = target: Tumor necrosis factor receptor superfamily member 16 (Homo sapiens, UniProt P08138); test: Binding affinity to neurotrophin receptor
[46] = target: Kappa-type opioid receptor (Homo sapiens, UniProt P41145); test: Binding affinity to kappa opioid receptor
[47] = target: Beta-3 adrenergic receptor (Homo sapiens, UniProt P13945); test: Binding affinity to adrenergic beta-3 receptor
[48] = target: Sodium-dependent serotonin transporter (Homo sapiens, UniProt P31645); test: Binding affinity to SERT
Chain of Sodium-dependent serotonin transporter (P31645 whole entry): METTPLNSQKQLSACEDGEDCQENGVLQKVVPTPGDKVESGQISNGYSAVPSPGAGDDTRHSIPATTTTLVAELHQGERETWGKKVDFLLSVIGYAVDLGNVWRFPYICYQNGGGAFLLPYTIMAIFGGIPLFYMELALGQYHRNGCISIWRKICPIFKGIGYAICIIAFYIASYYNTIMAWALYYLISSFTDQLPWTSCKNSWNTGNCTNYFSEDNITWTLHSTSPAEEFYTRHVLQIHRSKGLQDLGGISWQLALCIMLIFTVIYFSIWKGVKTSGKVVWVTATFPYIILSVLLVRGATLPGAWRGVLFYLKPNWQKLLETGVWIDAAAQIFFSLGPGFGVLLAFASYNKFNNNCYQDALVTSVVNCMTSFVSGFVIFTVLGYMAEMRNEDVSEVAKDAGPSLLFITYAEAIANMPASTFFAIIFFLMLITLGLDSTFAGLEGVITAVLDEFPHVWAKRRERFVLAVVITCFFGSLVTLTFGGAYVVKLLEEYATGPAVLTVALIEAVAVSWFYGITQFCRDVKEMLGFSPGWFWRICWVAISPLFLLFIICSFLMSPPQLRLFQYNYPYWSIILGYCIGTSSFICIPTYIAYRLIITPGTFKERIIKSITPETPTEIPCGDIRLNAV

[49] = target: 5-hydroxytryptamine receptor 2A (Homo sapiens, UniProt P28223); test: Binding affinity to human 5HT2A receptor
[50] = target: Cannabinoid receptor 1 (Homo sapiens, UniProt P21554); test: Binding affinity to CB1 receptor
Chain of Cannabinoid receptor 1 (P21554 whole entry): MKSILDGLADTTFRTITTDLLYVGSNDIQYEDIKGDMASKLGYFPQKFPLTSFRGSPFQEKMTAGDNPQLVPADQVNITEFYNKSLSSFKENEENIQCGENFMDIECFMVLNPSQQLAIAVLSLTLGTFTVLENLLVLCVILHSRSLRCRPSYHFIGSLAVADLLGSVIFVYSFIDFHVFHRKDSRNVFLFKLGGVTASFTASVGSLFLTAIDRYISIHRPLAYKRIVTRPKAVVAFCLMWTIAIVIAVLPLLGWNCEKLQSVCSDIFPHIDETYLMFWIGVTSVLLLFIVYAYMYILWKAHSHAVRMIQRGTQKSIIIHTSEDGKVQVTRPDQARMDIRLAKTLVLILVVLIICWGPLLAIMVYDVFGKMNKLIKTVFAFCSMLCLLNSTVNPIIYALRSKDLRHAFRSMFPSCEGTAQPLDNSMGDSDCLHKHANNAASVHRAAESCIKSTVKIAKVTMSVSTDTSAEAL

[51] = target: Histamine H4 receptor (Homo sapiens, UniProt Q9H3N8); test: Binding affinity to histamine H4 receptor
Chain of Histamine H4 receptor (Q9H3N8 whole entry): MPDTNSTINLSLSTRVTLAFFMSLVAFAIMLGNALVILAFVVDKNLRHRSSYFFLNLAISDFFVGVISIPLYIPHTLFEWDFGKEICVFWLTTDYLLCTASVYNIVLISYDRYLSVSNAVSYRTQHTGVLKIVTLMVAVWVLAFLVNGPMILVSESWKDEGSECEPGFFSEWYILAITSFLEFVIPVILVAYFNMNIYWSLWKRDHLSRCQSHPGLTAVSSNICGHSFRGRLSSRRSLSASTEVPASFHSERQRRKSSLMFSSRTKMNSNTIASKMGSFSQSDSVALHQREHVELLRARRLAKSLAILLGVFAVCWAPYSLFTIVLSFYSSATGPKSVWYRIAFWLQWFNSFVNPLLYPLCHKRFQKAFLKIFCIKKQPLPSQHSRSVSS

[52] = target: 5-hydroxytryptamine receptor 5A (Homo sapiens, UniProt P47898); test: Binding affinity to human 5HT5A receptor
[53] = target: Beta-2 adrenergic receptor (Homo sapiens, UniProt P07550)
Chain of Beta-2 adrenergic receptor (P07550 whole entry): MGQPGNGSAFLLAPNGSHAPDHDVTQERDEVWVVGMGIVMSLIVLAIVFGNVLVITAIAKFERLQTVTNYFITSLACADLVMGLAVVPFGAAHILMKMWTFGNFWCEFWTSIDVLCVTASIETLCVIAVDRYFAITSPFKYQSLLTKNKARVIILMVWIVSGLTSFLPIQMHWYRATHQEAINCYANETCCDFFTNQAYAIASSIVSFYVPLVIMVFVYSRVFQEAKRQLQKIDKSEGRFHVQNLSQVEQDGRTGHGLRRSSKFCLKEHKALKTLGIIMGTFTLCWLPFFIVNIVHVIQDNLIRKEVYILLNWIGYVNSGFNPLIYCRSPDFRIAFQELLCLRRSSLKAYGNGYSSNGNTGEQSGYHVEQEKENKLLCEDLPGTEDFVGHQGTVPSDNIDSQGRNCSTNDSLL

[54] = target: Adenosine receptor A2a (Homo sapiens, UniProt P29274); test: Binding affinity to adenosine […] receptor
Chain of Adenosine receptor A2a (P29274 whole entry): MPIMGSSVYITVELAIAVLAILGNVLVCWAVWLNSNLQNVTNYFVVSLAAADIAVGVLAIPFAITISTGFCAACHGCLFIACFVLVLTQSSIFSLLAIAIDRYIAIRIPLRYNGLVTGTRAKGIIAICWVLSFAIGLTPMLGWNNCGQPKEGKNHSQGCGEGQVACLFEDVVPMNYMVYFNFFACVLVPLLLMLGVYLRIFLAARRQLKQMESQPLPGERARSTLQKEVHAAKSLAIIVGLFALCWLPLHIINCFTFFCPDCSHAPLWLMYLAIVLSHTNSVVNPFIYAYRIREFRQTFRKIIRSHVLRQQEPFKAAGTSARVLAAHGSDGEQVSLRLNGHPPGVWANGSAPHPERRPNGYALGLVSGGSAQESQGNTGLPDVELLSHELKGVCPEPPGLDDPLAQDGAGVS

[55] = target: Adenosine receptor A3 (Homo sapiens, UniProt P0DMS8); test: Binding affinity to adenosine A3 receptor

Chain of Cannabinoid receptor 2 (P34972 whole entry): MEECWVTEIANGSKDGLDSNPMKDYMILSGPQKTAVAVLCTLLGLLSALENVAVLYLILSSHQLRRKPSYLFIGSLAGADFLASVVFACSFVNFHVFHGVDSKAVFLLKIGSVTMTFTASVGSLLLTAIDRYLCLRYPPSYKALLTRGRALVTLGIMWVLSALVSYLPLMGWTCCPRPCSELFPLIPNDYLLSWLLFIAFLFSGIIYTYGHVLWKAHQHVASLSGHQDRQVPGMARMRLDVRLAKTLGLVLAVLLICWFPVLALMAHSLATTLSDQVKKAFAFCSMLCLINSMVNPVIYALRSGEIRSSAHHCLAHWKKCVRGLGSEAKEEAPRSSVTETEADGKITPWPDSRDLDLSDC

`Cn1c(=O)cnn(CCCCN2CCN(c3cccc4ccc(O[11CH3])cc34)CC2)c1=O` showed a Ki [1] greater than 10000 nM, a Ki [2] greater than 10000 nM and a Ki [3] greater than 10000 nM. The Ki [4] was greater than 10000 nM, the EC50 [5] was 0.05 nM and the Ki [6] was 9.1 nM. The Ki [7] was 32.2 nM, the Ki [8] was greater than 10000 nM and the Ki [9] was greater than 10000 nM. The Ki [10] was 99.6 nM, the EC50 [11] was 0.01 nM and the Ki [12] was 23.7 nM. The Ki [13] was greater than 10000 nM, the Ki [14] was 480 nM and the Ki [15] was 8.5 nM. The Ki [16] was 476 nM, the Ki [17] was greater than 10000 nM and the Ki [18] was greater than 10000 nM. It also gave a Ki [19] of 302 nM, a Ki [20] greater than 10000 nM and a Ki [21] greater than 10000 nM. It also gave a Ki [22] greater than 10000 nM, a Ki [23] of 120 nM and a Ki [24] greater than 10000 nM. For the same molecule, the Ki [25] was greater than 10000 nM, the Ki [26] was greater than 10000 nM and the Ki [27] was greater than 10000 nM. It also gave a Ki [28] greater than 10000 nM, a Ki [29] of 407 nM and a Ki [30] greater than 10000 nM. It also gave a Ki [31] of 1010 nM, a Ki [32] of 1.36 nM and a Ki [33] greater than 10000 nM. For the same molecule, the Ki [34] was 22 nM, the Ki [35] was 150 nM and the Ki [36] was 6980 nM. The Ki [37] was greater than 10000 nM, the Ki [38] was 7400 nM and the Ki [39] was greater than 10000 nM. For the same molecule, the Ki [40] was greater than 10000 nM, the Ki [41] was greater than 10000 nM and the Ki [42] was greater than 10000 nM. It also gave a Ki [43] of 62.8 nM, a Ki [44] of 316 nM and a Ki [45] greater than 10000 nM. The Ki [46] was greater than 10000 nM, the Ki [47] was greater than 10000 nM and the Ki [48] was 6140 nM. It also gave a Ki [49] of 41.5 nM, a Ki [50] greater than 10000 nM and a Ki [51] greater than 10000 nM. The Ki [52] was 229 nM, the Ki [53] was 60.6 nM and the Ki [54] was greater than 10000 nM. For the same molecule, the Ki [55] was greater than 10000 nM.
